Results published in patent US10604476B2, “Fluorinated amide derivatives and their uses as therapeutic agents” (Trillium Therapeutics Inc., priority 2015, dated 2020).

Columns and labels:
[1] = test system: mEC-HC slice from KA-treated rats; assay: Spontaneously bursting hippocampal slice in vitro model; type: cell-based, rat; conditions: 100 μM, FIG. 2
Description: An in vitro screen uses the medial entorhinal cortex-hippocampal (mEC-HC) slice obtained from kainic acid (KA)-treated animals to identify compounds that may be effective in pharmacoresistant epilepsy. Systemic KA treatment in rats is an accepted model of temporal lobe epilepsy (TLE), where an initial insult results in status epilepticus and is followed by a sustained latent period that subsequently gives way to the development of spontaneous seizures. […] Moreover, the mEC-HC slices obtained from KA-treated rats are hyperexcitable in normal artificial cerebrospinal fluid (ACSF) solution as early as one week following KA-induced SE. Thus, this test screens investigational compounds for any potential efficacy against pharmacoresistant TLE. […]
Kainic acid administration/low dose: Animals were treated with Kainic Acid (Tocris, 0222) following a modified protocol described previously (Hellier et al 1998). Seizure activity is scored throughout KA administration using the Racine scale (Racine, 1972). […] Once stage 4-5 seizures are observed, injections cease and the number and stage of seizures observed are recorded on seizure score sheets. The animals are observed and seizures recorded for a minimum of 3.5 h. […]

[2] = test system: fully kindled (stage 5) seizures, amygdala kindled rat; assay: Amygdala kindled rat model; type: in vivo; conditions: <60 mg/kg i.p.
Description: Amygdala kindling model is an animal model for complex partial seizures, which is the most common type of epilepsy in adults and is often drug resistant.

mechanical allodynia = assay: Sciatic ligation model in rats (neuropathic pain); type: in vivo, rat; conditions: 23 mg/kg i.p.
Description: Animals will be anesthetized with sodium pentobarbital and the depth of anesthesia monitored by their response to a tail pinch and observation of the depth of respiration. Sterile technique will be used throughout the surgery. The upper thigh will be shaved and wiped off with ethanol and betadine. A small incision will then be made in the skin. The underlying muscle of the upper thigh will be separated and the sciatic nerve exposed. The nerve is separated from the surrounding connective tissue and slightly elevated by a pair of fine, curved forceps. Approximately ⅓ to ½ of the nerve is tied off by passing a needle (7.0) and nylon suture through the nerve. The muscle and skin incision are closed off separately with 5.0 suture and the animals kept warm until they have recovered from the anesthesia. […] The rats will be closely monitored daily for the development of infection or untoward effects of the surgery in which case the animals will be immediately euthanized. […] After 30-60 minutes in which to acclimate, a baseline mechanical sensitivity is determined. […] This is repeated until a 50% threshold for withdrawal can be determined. […] Testing will be conducted at the time-to-peak effect of the AED as determined in the acute seizure model (Z. Seltzer et al. Pain 43 1990, 205-218).

Compound | network hyperexcitability (spontaneous burst activity and duration) [1] | suppression of fully kindled (stage 5) seizures compared to vehicle controls [2] | mechanical allodynia compared to vehicle controls (mechanical allodynia)
C[C@@H](Oc1cc(Cl)cc(C(F)(F)F)c1)C(N)=O [I(D), (2R)-2-[3-chloro-5-(trifluoromethyl)-phenoxy]propanamide] | effectively suppressed | dose related suppression | –
NC(=O)COc1cc(C(F)(F)F)cc(C(F)(F)F)c1 [I(F), 2-[3,5 bis(trifluoromethyl)-phenoxy]acetamide;] | – | – | significant decrease
